Test results: patent US8008074B2, “Compositions and methods for improving bone mass through modulation of receptors of PTH and fragments thereof” (The UAB Research Foundation, priority 2006, dated 2011)
Entries after “also recorded” stand apart in the source; their conditions may differ.

Experiments:
Format in all cases: cell-based
β-catenin = β-catenin stabilization, Western blot of UMR 106 cell fractions; conditions: UMR 106 cells; for inhibition of PTH-induced β-catenin stabilization: inhibitor 30 minutes before 10^−7 M PTH (1-84) for 1 hour, cytosolic fraction
LRP6/Axin binding = test: Axin-LRP6 binding immunoprecipitation assay; conditions: for inhibition of PTH-induced binding of Axin to LRP6: pre-treatment 30 minutes, then PTH (1-84) for 1 hour; for Axin-LRP6 binding: HEK 293 cells cotransfected with LRP6, Axin and GSK3β, ligand for 1 hour
[1] = system: Wnt responsive luciferase reporter (TCF4-Luc); test: TCF4-Luc luciferase reporter assay in UMR 106 cells; conditions: for TCF luciferase activity: 5×10^−7 M of indicated PTH ligands for 12 hours
PTH1R/LRP5/6 complex = biological target: T1, PTH1R/LRP5/6 complex (Rattus norvegicus, UniProt P25961); test: Co-immunoprecipitation of endogenous PTH1R with LRP5/6 in UMR-106 cells; conditions: 5×10^−7 M PTH (1-84)
T1 construct: endogenous in cells; host or cells: UMR-106
T1 sequence (P25961 27-591): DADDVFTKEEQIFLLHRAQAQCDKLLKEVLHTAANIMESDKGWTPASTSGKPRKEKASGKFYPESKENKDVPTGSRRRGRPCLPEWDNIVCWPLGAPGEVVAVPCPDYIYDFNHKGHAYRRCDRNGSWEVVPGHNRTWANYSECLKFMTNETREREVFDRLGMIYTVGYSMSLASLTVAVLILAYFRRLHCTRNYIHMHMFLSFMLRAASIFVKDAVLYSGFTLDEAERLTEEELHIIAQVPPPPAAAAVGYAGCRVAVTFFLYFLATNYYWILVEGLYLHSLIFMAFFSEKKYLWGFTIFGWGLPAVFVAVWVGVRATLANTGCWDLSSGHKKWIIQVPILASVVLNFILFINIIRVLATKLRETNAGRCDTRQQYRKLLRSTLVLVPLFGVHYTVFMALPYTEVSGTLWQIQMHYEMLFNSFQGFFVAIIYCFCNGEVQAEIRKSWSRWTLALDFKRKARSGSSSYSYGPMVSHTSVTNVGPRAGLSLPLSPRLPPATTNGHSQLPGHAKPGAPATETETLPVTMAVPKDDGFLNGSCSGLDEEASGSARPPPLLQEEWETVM
Protocol: Endogenous LRP5 or LRP6 was coimmunoprecipitated with PTH1R in UMR 106 cells. UMR 106 cells were treated with 5×10^−7 M PTH (1-84) for indicated times. […] VSVG-tagged LRP6 was cotransfected into HEK 293 cells with HA-PTH1R, and the cells were treated with 5×10^−7 M PTH (1-84) for 1 hour. The LRP6-associated PTH ligand was determined by Western blotting of the anti-VSVG immunoprecipitates. […] VSVG-tagged LRP6, LRP6N, or LRP6C was cotransfected into HEK 293 cells with HA-PTH1R, and the cells were treated with or without 5×10^−7 M PTH (1-84) for 1 hour. The PTH1R-associated LRP6, LRP6N, or LRP6C was determined by Western blotting of the anti-HA immunoprecipitates, and the LRP6-, LRP6N- or LRP6C-associated PTH1R and PTH ligand was determined by Western blotting with an anti-VSVG antibody. […] The PTH1R-associated LRP6 was determined by Western blotting. […] The effect of LRP-6N on PTH-induced TCF4 activation was determined by luciferase assays.
To determine if PTH (1-84) induced the formation of a complex of endogenous PTH1R with LRP5/6, an immunoprecipitation assay in osteoblastic UMR-106 cells was used. […] The cell lysates isolated from transfected cells treated with or without PTH were subjected to immunoprecipitation with anti-PTH1R antibodies, and the immunocomplex was detected by Western blotting with a monoclonal antibody that recognizes both LRP5 and LRP6. […]

Axin = Axin protein levels; conditions: cells overexpressing LRP6
Text: Binding of Axin to phosphorylated LRP6 leads to rapid degradation. Then inhibition of Axin/LRP6 binding should […] degradation of Axin. Indeed, Axin degradation is reduced by both inhibitors (data not shown). […] PKA and PKC also were examined to determine whether they regulate PTH-induced PTH1R/LRP6 complex formation. […] Apparently, the receptor complex formation is independent of activation of PKA and PKC. Instead, it seems that activation of G protein-mediated PKA and PKC signaling is in parallel with the recruitment of LRP5/6 in PTH signaling. PKA and PKC activity is required for LRP5/6 phosphorylation and Axin/LRP6 binding.
Wnts induce binding of Axin to phosphorylated LRP6, and the membrane-bound Axin undergoes rapid protein dephosphorylation and degradation, which eventually leads to β-catenin stabilization Willert et al., 1999; Yamamoto et al., 1999).

[2] = system: TGF-β-induced transcription activity; test: Smad binding response luciferase reporter (SBE-luc) in 293 cells; conditions: TGF-β 2 ng/ml, 50 nM
Protocol: A Smad binding response luciferase reporter (SBE-luc) was transfected into 293 cells. TGF-β (2 ng/ml) was added in combination with different doses of PTH (1-34) or cPTH (39-84). Twenty-four hours after transfection, the cells were lysed and the luciferase signal was detected. Luciferase values shown in the figures are representative of transfection experiments performed in triplicate in at least three independent experiments. The relative increased fold of the luciferase activity stimulated by TGF-β in each cell line was calculated.
A Smad binding response luciferase reporter (SBE-luc) was introduced into the multi-cloning site of pcDNA3 (Invitrogen), and the resulting vector was transfected into 293 cells using Lipofectamine Plus reagent (Invitrogen, Cat. No. 10964-013). TGF-β (2 ng/ml) was added in combination with different doses of PTH (1-34) (50 nM) or cPTH (39-84) (50 nM). […] Forty-two hours after transfection, the cells were lysed, and the luciferase signal was detected using the Dual Luciferase assay kit (Promega) according to the manufacturer's instructions.
Luciferase values shown in the figures are representative of transfection experiments performed in triplicate in at least three independent experiments. The relative increased fold of the luciferase activity stimulated by TGF-β in each cell line was calculated.

| Molecule | Axin-LRP6 binding (LRP6/Axin binding) | inhibition of PTH-induced β-catenin stabilization (β-catenin) | inhibition of PTH-induced binding of Axin to LRP6 (LRP6/Axin binding) | inhibition of PTH-stimulated TCF4-luciferase reporter activity [1] | Axin protein levels (Axin) | TCF luciferase activity [1] | also measured |
| --- | --- | --- | --- | --- | --- | --- | --- |
| Calphostin C | – | less effective; also recorded: inhibit PTH-induced β-catenin stabilization | much weaker; also recorded: inhibit the binding of Axin with LRP6 | inhibited activity from a TCF4-luciferase reporter | – | – | – |
| O=S(=O)(NCCNC/C=C/c1ccc(Br)cc1)c1cccc2cnccc12 [H89] | – | inhibit PTH-induced β-catenin stabilization | inhibit the binding of Axin with LRP6 | inhibited activity from a TCF4-luciferase reporter | – | – | – |
| PTHrP 1-40: PTHrP fragment 1-40 tested beside PTH ligands | stimulated Axin-LRP6 binding | – | – | – | further downregulated Axin protein levels | significantly elevated | – |
| cPTH (39-84): C-terminal fragment of PTH, amino acids 39-84 (APLAPRDAGSQRPRKKEDNVLVESHEKSLGEADKADVNVLTKAKSQ; Parathyroid hormone; UniProt P01270 70-115, looked up, fragment) | – | – | – | – | – | only a marginal increase | effect on TGF-β-induced transcription activity (SBE-luc) [2]: inhibited TGF-β-induced transcription activity |

Second part, led by results:

| Axin-LRP6 binding (LRP6/Axin binding) | Molecule | inhibition of PTH-induced β-catenin stabilization (β-catenin) | inhibition of PTH-induced binding of Axin to LRP6 (LRP6/Axin binding) | inhibition of PTH-stimulated TCF4-luciferase reporter activity [1] | Axin protein levels (Axin) | TCF luciferase activity [1] | also measured |
| --- | --- | --- | --- | --- | --- | --- | --- |
| induces LRP6/Axin binding | PTH (1-84): Full-length PTH or PTH ligand, 84 amino acids long, represented as 1-84 | – | – | – | further downregulated Axin protein levels | significantly elevated | β-catenin levels in cytosolic and nuclear fractions (β-catenin; 5×10^−7 M PTH (1-84), 30 minutes): stimulated the levels of β-catenin in both the cytoplasm and the nucleus; interaction between endogenous LRP5/6 and PTH1R (PTH1R/LRP5/6 complex): induced the interaction between endogenous LRP5/6 and PTH1R in a time dependent manner; time of peak of PTH-induced LRP5/6-PTH1R interaction (PTH1R/LRP5/6 complex): 1 h; Axin-LRP6 binding (LRP6/Axin binding; listed as PTH1-84): stimulated Axin-LRP6 binding; activation of TCF4-Luc reporter ([1]; 10^−7M PTH (1-84), 12 hours): activates the Wnt signaling pathway |
| did not | PTH 79-84: C-terminal PTH ligand as printed; possibly misprint of 39-84 (TKAKSQ; Parathyroid hormone; UniProt P01270 110-115, looked up, fragment) | – | – | – | did not affect Axin level | – | – |
